Values joined by “and” are separate entries in the source; they are usually repeats but may differ in a detail not shown here. Equal entries are not always repeated.
How the values were obtained:
Assay type in all cases: in vivo, human
[1] = Pharmacokinetics of VCD stereoisomers in plasma after repeated oral dosing of racemic valnoctamide to epileptic patients; conditions: repeated oral racemic VCD 200 mg tid, last day
Experimental: (§1) Patients Six epileptic patients (four men and two women aged 23-35 years, with a body weight of 56-85 kg) were studied. All had been receiving a constant carbamazepine dose (800-1200 mg/day) for at least three months. One patient was also receiving phenytoin (250 mg/day) and a second patient phenobarbital (150 mg/day). Each patient received add-on VCD for eight consecutive days at a dosage of 400 mg on day 1 (single dose day), followed by 200 mg three times daily (tid) for seven days. On the last day, only the morning and the midday doses were administered. Blood samples for plasma VCD levels were collected at 0, 0.25, 0.5, 1, 1.5, 2, 3, 4, 5, 6, 8, 10, 12 and 24 hours after the first and the last morning dose. Additional samples were taken at times 0, 0.5, 1, and 2 hours after the morning dose on the last treatment day.
(§2) Plasma Handling and Analytical Assays Plasma samples were separated immediately by centrifugation at 2,000 g for 10 minutes and stored at −20° C. until assaying (VCD is stable at −20° C.). The VCD plasma samples were analyzed by a gas chromatograph (HP 5890 series II)-mass spectrometer (HP 5989A)-GC-MS data system equipped with chiral capillary column. The mass spectrometer was operated in E1 mode at 70eV, the source temperature of the MS was maintained at 200° C. and the quadruple at 100° C. Mass units and their relative abundance were calibrated with perfluorotributylamine (PFTBA). Spectra were collected in the range of […], and the chiral analysis started 18 minutes after injection. Gas chromatograph (GC) oven temperature programming conditions were as follows: 50° C. for 1 minute, then increasing at a rate of 8° C./minute until 100° C., holding for a minute then 4° C./minute until reaching a final temperature of 250° C. The injector temperature is 240° C. and the GC-MS transfer line temperature is 250° C. Inlet pressure is 5 psi with a linear flow rate 20 cm/second. Helium was used as the carrier gas. Chromatographic resolution of the VCD stereoisomers was accomplished by a direct separation on a chiral stationary phase (CSP) column. The CSP consisted of a Chirasil-γ-Dex (octakis (3-O-butanoyl-2,6-di-o-pentyl)-γ-cyclodextrin chemically linked via a 6-mono-octamethylene spacer to a dimethylpolysiloxane. The 0.25 μm Chirasil-γ-Dex was coated on a 25 m×250 μm (id) fused silica capillary column. This CSP of a cyclodextin derivative allows complete baseline resolution of the four stereoisomers (α=1.04, Rs=2.0-2.4) in 24 minutes as depicted in FIG. 2. Intra and inter-day variability in the retention times of the four VCD stereoisomers was less than 10%. A calibration curve was established by spiking drug-free plasma samples with known amounts of racemic VCD at a concentration range of 0.2 mg/L to 8 mg/L (or 0.05 mg/L to 2 mg/L of each of the four VCD stereoisomers).
(§3) Pharmacokinetic and Statistical Analysis Pharmacokinetic parameters were calculated by noncompartmental analysis according to statistical moment theory. Peak plasma concentrations (Cmax) and peak times (tmax) were derived directly from the measured values. The linear terminal slopes (λ) of the log-concentration of each VCD stereoisomer versus time curves were calculated by the peeling procedure. Half life (t½) values were calculated as 0.693/λ. Areas under the plasma concentration versus time curve (AUC), after single dosing, were calculated by the trapezoidal rule with extrapolation to infinity by dividing the last measured concentration by the terminal slope. During repeated administration AUC was calculated over the last two dosing intervals by using the trapezoidal rule. Mean residence time (MRT) was calculated after single dosing as AUMC/AUC, in which AUMC is the area under the concentration×time product versus time curve from zero to infinity. Following single dosing, oral clearance (CL/F, in which F is the oral availability) and apparent volume of distribution at steady state (Vss/F) were calculated as Dose/AUC and as MRT×CL/F, respectively. […]

[2] = Pharmacokinetics of VCD stereoisomers in plasma after single oral dose of racemic valnoctamide to healthy subjects
Experimental: Healthy Subjects Seven healthy male volunteers, aged 20-31 years, weighing 61 to 85 kg, received 2×200 mg valnoctamide tablets (Nirvanil@) at 08:00 hours after an overnight fast. Venous blood samples were taken through an indwelling catheter 0, 0.5, 1, 2, 3, 4, 5, 6, 8, 10, 12 and 24 hours after dosing. Food was witheld for 4 hours after dosing.
as §2
Pharmacokinetic and Statistical Analysis Pharmacokinetic parameters were calculated by noncompartmental analysis according to statistical moment theory. Peak plasma concentrations (Cmax) and peak times (tmax) were derived directly from the measured values. The linear terminal slopes (λ) of the log-concentration of each VCD stereoisomer versus time curves were calculated by the peeling procedure. Half life (t½) values were calculated as 0.693/λ. Areas under the plasma concentration versus time curve (AUC), after single dosing, were calculated by the trapezoidal rule with extrapolation to infinity by dividing the last measured concentration by the terminal slope. During repeated administration AUC was calculated over the last two dosing intervals by using the trapezoidal rule. Mean residence time (MRT) was calculated after single dosing as AUMC/AUC, in which AUMC is the area under the concentration×time product versus time curve from zero to infinity. Following single dosing, oral clearance (CL/F, in which F is the oral availability) and apparent volume of distribution at steady state (Vss/F) were calculated as Dose/AUC and as MRT×CL/F, respectively. Following repeated dosing, CL/F was calculated from the quotient of the dose (200 mg) and the AUC obtained during one dosing interval (defined as one-half of the AUC calculated over two consecutive dosing intervals). Comparison of the pharmacokinetic parameters of all four VCD stereoisomers was made by ANOVA.

[3] = Pharmacokinetics of VCD stereoisomers in plasma after single oral dose of racemic valnoctamide to epileptic patients; conditions: for CL/F / Cmax / MRT / tmax / t½: single oral 400 mg racemic VCD; for half lives: epileptic patients
Experimental: as §1, §2, §3

[4] = Mean ± SD of six epileptic patients
[5] = individual epileptic patients, last dosing interval
[6] = Mean ± SD of seven healthy subjects, single oral 400 mg racemic VCD
[7] = individual healthy subjects, single oral 400 mg racemic VCD
[8] = individual healthy subjects, single oral 400 mg racemic VCD (Nirvanil), stereoisomer in plasma
[9] = individual epileptic patients on carbamazepine

Compound | CL/F [1, 4] [L/h] | Cmax [1, 4] [mg/L] | tmax [1, 4] [h] | t½ [1, 4] [h] | CL/F ([1]; individual epileptic patients) | Cmax ([1]; individual epileptic patients) | tmax ([1]; individual epileptic patients) | t½ [1, 5] | CL/F [2, 6] [L/h] | Cmax [2, 6] [mg/L] | MRT [2, 6] [h] | tmax [2, 6] [h] | t½ [2, 6] [h] | CL/F [2, 7] | Cmax [2, 7] | MRT [2, 7] | tmax [2, 7] | t½ [2, 8] | CL/F [3, 4] [L/h] | Cmax [3, 4] [mg/L] | other results
CCC(C)C(CC)C(N)=O (single isomer, unassigned; stereoisomer a) [Stereoisomer A] | 21 ± 4 | 0.9 ± 0.2 | 1.5 ± 0.3 | 2.8 ± 0.7 | 23 L/h and 19 L/h (3×) and 20 L/h and 29 L/h | 0.9 mg/L and 1.1 mg/L and 0.72 mg/L and 0.86 mg/L and 0.8 mg/L and 1.2 mg/L | 2.0 h and 1.5 h (3×) and 1.0 h and 1.75 h | 2.2 h and 2.7 h and 3.8 h (2×) and 2.4 h and 4.8 h | 4.2 ± 0.6 | 1.7 ± 0.2 | 15 ± 3 | 0.7 ± 0.3 | 10.2 ± 2.1 | 3.6 L/h and 4.5 L/h and 4.1 L/h and 3.7 L/h and 4.6 L/h and 4.2 L/h and 3.5 L/h | 2.0 mg/L and 1.5 mg/L (2×) and 1.8 mg/L (3×) and 1.7 mg/L | 13 h (2×) and 20 h and 12 h (2×) and 15 h and 18 h | 1 h (3×) and 0.5 h (4×) | 8.8 h and 13.6 h and 8.1 h and 10.7 h and 9.5 h and 8.5 h and 12.5 h | 32 ± 7 | 0.78 ± 0.10 | t½ ([2]; Mean ± SD of seven healthy subjects, single oral 400 mg racemic VCD, listed as A): approximately 10 h; MRT [3, 4]: 5.4 ± 1.5 h; tmax [3, 4]: 0.8 ± 0.5 h; t½ [3, 4]: 4.1 ± 2.1 h; half lives [3]: about 3 h; CL/F [3, 9]: 40 L/h and 27 L/h and 35 L/h (2×) and 32 L/h and 20 L/h; Cmax [3, 9]: 0.71 mg/L (2×) and 0.94 mg/L and 0.82 mg/L and 0.88 mg/L and 0.67 mg/L; MRT [3, 9]: 4.4 h and 5.1 h (2×) and 4.3 h and 5.3 h and 8.3 h; tmax [3, 9]: 1.5 h (2×) and 0.5 h (4×); t½ [3, 9]: 2.8 h and 3.6 h (2×) and 2.5 h and 8.3 h and 3.8 h
CCC(C)C(CC)C(N)=O (single isomer, unassigned; stereoisomer b) [Stereoisomer B] | 58 ± 14 | 0.4 ± 0.1 | 1.4 ± 0.3 | 2.2 ± 0.5 | 79 L/h and 50 L/h (2×) and 52 L/h and 71 L/h and 46 L/h | 0.4 mg/L (2×) and 0.5 mg/L (2×) and 0.3 mg/L (2×) | 2.0 h and 1.5 h (3×) and 1.0 h and 1.25 h | 2.0 h and 1.9 h and 2.9 h and 2.1 h and 4.3 h (2×) | 8.7 ± 0.9 | 1.3 ± 0.2 | 8 ± 1 | 0.7 ± 0.3 | 5.8 ± 1.1 | 7.9 L/h (2×) and 9.2 L/h and 8.4 L/h and 10.2 L/h and 8.1 L/h and 9.3 L/h | 1.5 mg/L (2×) and 1.1 mg/L (2×) and 1.4 mg/L (3×) | 7.0 h and 10 h (2×) and 7 h and 9 h and 8 h (2×) | 1 h (3×) and 0.5 h (4×) | 4.7 h and 7.3 h and 4.6 h and 6.0 h and 5.8 h and 5.2 h and 7.1 h | 80 ± 20 | 0.41 ± 0.12 | t½ ([2]; Mean ± SD of seven healthy subjects, single oral 400 mg racemic VCD, listed as stereoisomer B): ~5.8 h; MRT [3, 4]: 4.0 ± 1.6 h; tmax [3, 4]: 0.75 ± 0.41 h; t½ [3, 4]: 3.0 ± 1.3 h; half lives [3]: about 3 h; CL/F [3, 9]: 108 L/h and 60 L/h and 94 L/h and 84 L/h and 56 L/h and 79 L/h; Cmax [3, 9]: 0.31 mg/L and 0.56 mg/L and 0.3 mg/L and 0.48 mg/L and 0.51 mg/L and 0.32 mg/L; MRT [3, 9]: 3.6 h and 5.2 h and 3.3 h and 1.3 h and 5.1 h and 5.6 h; tmax [3, 9]: 1 h and 0.5 h (4×) and 1.5 h; t½ [3, 9]: 1.4 h and 4.0 h (2×) and 1.3 h and 3.0 h and 4.1 h
CCC(C)C(CC)C(N)=O (single isomer, unassigned; stereoisomer c) [Stereoisomer C] | 27 ± 5 | 0.8 ± 0.2 | 1.4 ± 0.3 | 2.9 ± 0.9 | 26 L/h and 23 L/h (2×) and 24 L/h and 36 L/h and 28 L/h | 0.81 mg/L and 0.9 mg/L and 0.62 mg/L and 0.7 mg/L and 0.6 mg/L and 1.0 mg/L | 2.0 h and 1.5 h (3×) and 1.0 h and 1.25 h | 2.2 h and 3.0 h and 4.1 h (2×) and 2.3 h and 5.0 h | 4.3 ± 0.4 | 1.6 ± 0.2 | 15 ± 3 | 0.7 ± 0.3 | 10.3 ± 1.9 | 4.0 L/h and 5.1 L/h and 4.3 L/h and 4.1 L/h (2×) and 4.6 L/h and 3.9 L/h | 1.8 mg/L (2×) and 1.4 mg/L and 1.7 mg/L (2×) and 1.6 mg/L and 1.5 mg/L | 12 h (2×) and 18 h (2×) and 14 h and 16 h and 13 h | 1 h (3×) and 0.5 h (4×) | 8.4 h and 13 h and 8.0 h and 10 h and 11.1 h and 9.2 h and 12.4 h | 39 ± 8 | 0.7 ± 0.12 | t½ ([2]; Mean ± SD of seven healthy subjects, single oral 400 mg racemic VCD, listed as C): approximately 10 h; MRT [3, 4]: 4.8 ± 0.4 h; tmax [3, 4]: 0.83 ± 0.5 h; t½ [3, 4]: 3.3 ± 0.5 h; half lives [3]: about 3 h; CL/F [3, 9]: 50 L/h and 31 L/h and 44 L/h and 38 L/h and 28 L/h and 41 L/h; Cmax [3, 9]: 0.55 mg/L and 0.82 mg/L and 0.56 mg/L and 0.76 mg/L and 0.8 mg/L and 0.7 mg/L; MRT [3, 9]: 4.4 h and 4.8 h (2×) and 4.2 h and 5.4 h and 5.0 h; tmax [3, 9]: 1.5 h (2×) and 0.5 h (4×); t½ [3, 9]: 2.8 h and 3.4 h and 2.6 h and 3.7 h (2×) and 3.5 h
